In data set [1] the test system is ML2 cells (acute myeloid leukemia). As to the kind of experiment: Cell death after 96 h of treatment (ANXN/7AAD flow cytometry), ML2. The class given is cell-based. As to conditions: Homo sapiens, ML-2; ML2, 96 h. How it is done:
(§1) Four hematological cell lines (ML2—acute myeloid leukemia; Jurkat—acute lymphoblastic leukemia; Namalwa—Burkitt lymphoma; and RPMI8226—multiple myeloma) were purchased from DSMZ (German Collection of Microorganisms and Cell Cultures, Braunschweig, Germany) or ATCC.
(§2) All cells were cultured in RPMI medium (Invitrogen AG, 61870-01) supplemented with 10% heat inactivated fetal calf serum (Amimed, 2-01F30-I) and 1% penicillin/streptomycin at 37 °C (Amimed, 4-01F00-H) in a humidified atmosphere of 95% air and 5% CO2.
(§3) To determine the cell death induced by NAMPT inhibitors, malignant cells were stained with ANNEXIN-V (ANXN, eBioscience, BMS306FI/300) and 7-aminoactinomycin D (7AAD, Immunotech, A07704) as described by the manufacturer and analyzed using flow cytometry. Dead cells were identified as ANXN+7AAD+ /7AAD+ and early apoptotic cells as ANXN+ 7AAD-. Specific cell death induced by inhibitors was calculated using the following formula: percent of cell death induced by compound = [(S – C) / (100 – C)] × 100; where S = treated sample cell death and C = untreated sample cell death.
For orientation: A flow cytometer gives signals particle by particle.

The subject of data set [2] is Jurkat cells (acute lymphoblastic leukemia). In words: Cell death after 96 h of treatment (ANXN/7AAD flow cytometry), Jurkat. The class given is cell-based. As to conditions: Homo sapiens. How it is done:
as §1, §2, §3

Data set [3] concerns Namalwa cells (Burkitt lymphoma). As to the kind of experiment: Cell death after 96 h of treatment (ANXN/7AAD flow cytometry), Namalwa. The class given is cell-based. The conditions noted are these: Homo sapiens. How it is done:
as §1, §2, §3

In data set [4] the test system is RPMI8226 cells (multiple myeloma). As to the kind of experiment: Cell death after 96 h of treatment (ANXN/7AAD flow cytometry), RPMI8226. The class given is cell-based. The conditions noted are these: Homo sapiens, RPMI-8226; RPMI8226, 96 h. On the procedure:
as §1, §2, §3

A short description of data set [5]: Pharmacokinetics in mice after intraperitoneal administration. In kind it is in vivo. As to conditions: for Cmax / Tmax / CL/F / half-life / AUC(0-t) / Vd/F: female SCID mice, intraperitoneal, 20 mg/kg (Figure S1); for Cmax / Tmax / half-life / AUC(0-t) / Vd/F: plasma; for CL/F: dose divided by AUC0-24; for Vd/F: (CL/F)/λz, read-out: Vz/F. How it is done:
Concentration measurements in mice EDTA plasma samples were performed using a Vanquish Flex ultra-high-performance liquid chromatography (UHPLC) system attached to a TSQ Quantis^TM triple quadrupole mass spectrometer (MS) (ThermoFisher Scientific, Waltham, MA, USA). The chromatographic column was a Luna Omega Polar C18 3 µm, 50 × 2.1 mm from Phenomenex (Torrance, CA, USA), kept at 40 °C in a UHPLC oven. The mobile phase was made of water and acetonitrile (ACN) with 0.1% formic acid in each. The gradient program ranged from 20 to 95% ACN in 1.5 min and the total method duration (including equilibration for the next injection) was 3 min. The flow rate and injection volume were 0.5 mL/min and 5 µL, respectively.
For the sample preparation, 90 µL of ACN was added to an aliquot of 30 µL of mouse plasma for protein precipitation. The mixture was then centrifugated at 14,000 rpm and the supernatant was directly injected in the UHPLC–MS.
Drug plasma concentrations were measured at selected time points after intraperitoneal administration in mice (sacrificed mice in triplicates for each time point). Samples were analyzed on two separate occasions for each sampling. Then, pharmacokinetic (PK) parameters were computed using standard non-compartmental calculations for geometric means of the measured concentrations using the “PKNCA R Package” (R version 4.0.2, R Development Core Team, http://www.r-project.org/ access date: 4 February 2023).
The area under the curve (AUC0-24) was calculated for the four drugs using the trapezoidal and log-trapezoidal rule when appropriate. The terminal rate constant (λz) was approximated using the slope of the terminal phase, while the half-life (T1/2) was calculated as ln(2)/λz, the apparent clearance (CL/F) as the dose divided by AUC0-24 and the apparent volume of distribution (Vz/F) as (CL/F)/λz.

For another data set, the target named is T1, purified NAMPT (Homo sapiens, UniProt P43490).
T1 construct: purchased Abcam ab221819
In words: NAMPT enzymatic activity assay (colorimetric kit). The class given is biochemical. The conditions noted are these: 1 µM final concentration. On the procedure:
The ability of FK866 (APO866) analogues to inhibit NAMPT activity was assessed with an NAMPT Activity Assay Kit (Colorimetric) (Abcam, ab221819, Cambridge, UK) according to the manufacturer’s instructions. Briefly, NAMPT inhibitors were dissolved in DMSO to a final concentration of 1 µM and distributed in a 96-well plate in duplicate. Then, a reaction mix containing assay buffer, ATP, NMNAT1, NAM, PRPP and ddH2O was added and the plate was incubated at 30 °C for 60 min. After, to measure the generated NAD^+, a mix of WST-1, ADH, diaphorase and ethanol was added to the wells. The absorbance was measured in kinetic mode at 450 nm on a microplate reader for 45 min at 30 °C.
Figure 2 New compounds with a potent NAMPT inhibitory activity. Compounds were added in 1 µM final concentration to purified NAMPT and incubated with co-substrates, resulting in a reduction of tetrazolium salt (WST-1) to colorful formazan. The amount of formed dye is directly proportional to the enzyme activity. The absorbance of the dye was detected at OD 450 nm.

Data set [6] deals with ML2, Jurkat, Namalwa and RPMI8226 cells. In words: Cell death in the four hematological cancer cell lines, statements for all lines together. The class given is cell-based, human. The conditions noted are these: 96 h. How it is done: as §1, §2, §3
A dose-dependent analysis of cell death induced by NAMPT inhibitors on ML2 (A), Jurkat (B), Namalwa (C) and RPMI8226 (D) cell lines. The cells were treated with various concentrations of NAMPT inhibitors for 96 h and cell death was assessed by flow cytometry using ANXN and 7AAD staining. […]

The subject of data set [7] is Namalwa tumors (human Burkitt lymphoma cell line). In words: Mouse xenograft model of human Burkitt lymphoma. The class given is in vivo. The conditions noted are these: for Tumor growth: 10 mg/kg I.P. twice a day for 4 days, weekly over 3 weeks, JJ08: 5 days after administration. On the procedure:
The new NAMPT inhibitors (JJ08, FEI191 and FEI199 (in comparison with lead compound, FK866 (APO866))) were evaluated in vivo in a mouse xenograft model of human Burkitt lymphoma. […] non-leaky C.B.-17 SCID mice (8 to 10 weeks old; Iffa Credo, L’Arbresle, France) were housed in micro-isolator cages in a specific pathogen-free room in the animal facility at the University Hospital of Lausanne. Firstly, the mice spent one week alone to acclimatize to their new environment. All animals were handled according to the institutional regulations and with the prior approval of the animal ethic committee of the University of Lausanne. Manipulations were performed in sterile conditions under a laminar flow hood. Firstly, Namalwa cells (1 × 10^7) were injected subcutaneously into the mouse flank side. Once the tumors became palpable and reached a size between 100 and 150 mm^3, mice (n = five/ group) were randomized into control and treated groups. The drugs were administered intraperitoneally (10 mg/kg body weight) in 200 µL 0.9% saline twice a day for 4 days, repeated weekly over 3 weeks. The control group was treated only with 200 µL 0.9% saline. Every day, the animals were monitored for any signs of illness, and in cases where the tumor size reached a diameter of 15 mm, they were sacrificed immediately.
Tumor size (A) and survival rate (B) of mice xenografted with Namalwa cells treated or untreated with NAMPT inhibitors were monitored for 21 days. Twenty-five 6-to-8-week-old C.B.-17 SCID mice were transplanted subcutaneously with Namalwa cells (10^7). Once tumors reached a volume of approximately 100–150 mm^3, at day 14, mice were randomized into five groups of animals (n = 5) with similar body weight. Control groups received vehicle (pink line) and JJ08 (10 mg/kg; light blue line), FEI191 (10 mg/kg; red line), FEI199 (10 mg/kg; green line) or APO866 (10 mg/kg; blue line) were administered as described in the Materials and Methods section. […] Data were analyzed by the Kaplan–Meier survival analysis with log-rank test.
For orientation: In xenograft studies the graft and the host belong to different species.

SMILES strings stand for the structures. pIC50: −log10 of the molar value. Like-named read-outs stand apart in the source and are kept apart here. Bounds are passed on as bounds.

Data on three compounds can be found in publication PMC9967653, “Anticancer Activities of Novel Nicotinamide Phosphoribosyltransferase Inhibitors in Hematological Malignancies” (Molecules, 2023).

T1 sequence (P43490 whole entry): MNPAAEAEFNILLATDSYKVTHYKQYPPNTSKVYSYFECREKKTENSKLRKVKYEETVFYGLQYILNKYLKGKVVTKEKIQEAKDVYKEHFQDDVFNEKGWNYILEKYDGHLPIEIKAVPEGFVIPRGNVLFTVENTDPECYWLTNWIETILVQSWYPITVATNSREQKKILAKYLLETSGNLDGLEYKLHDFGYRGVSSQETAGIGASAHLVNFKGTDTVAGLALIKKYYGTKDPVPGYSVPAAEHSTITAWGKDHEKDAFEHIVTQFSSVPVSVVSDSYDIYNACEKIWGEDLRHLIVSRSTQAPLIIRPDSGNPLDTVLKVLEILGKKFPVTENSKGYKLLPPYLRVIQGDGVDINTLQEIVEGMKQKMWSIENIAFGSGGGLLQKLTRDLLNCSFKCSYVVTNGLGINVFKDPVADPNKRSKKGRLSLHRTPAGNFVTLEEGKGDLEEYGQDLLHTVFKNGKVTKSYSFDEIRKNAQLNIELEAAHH

What is called pIC50 is the IC50 on a negative log10 scale, so that one unit is a factor of ten. The term Cmax denotes the maximum level reached in the sampled fluid or tissue. One may read the Tmax as the time from dosing to the highest level. For orientation: CL/F means clearance divided by bioavailability, as obtained after extravascular dosing. The half-life is how long it takes for the measured level to halve. Higher therefore signals slow loss. `O=C(/C=C/c1cccnc1)NCCCCC1CCN(C(=O)c2ccccc2)CC1` [APO866, reference compound] had a pIC50 in data set [1] of 9.39. The same compound showed a pIC50 in data set [2] of 9.33. The pIC50 in data set [3] was 9.24. The compound also showed a pIC50 in data set [4] of 9.64. Further, in data set [5], the Cmax was 28,028 ng/mL, the Tmax was found to be 0.17 h and the CL/F turned out to be 24 mL/h. Also, in data set [5] (mouse, ip), the half-life is 3.74 h and the Vd/F is 0.131 L. Moreover, in data set [5] (mouse, ip, read-out: AUC0-24), the AUC(0-t) came out at 16400 ng·h/mL.
Take `N#CN=C(NC/C=C/CCC1CCN(C(=O)c2ccco2)CC1)Nc1ccncc1` [FEI199]: the “Inhibition of NAMPT activity” value at purified NAMPT is on record as “full inhibition”. The negative-log IC50 (pIC50) is 9.68 in data set [1]; 9.60 in data set [2]; 9.54 in data set [3]; 9.92 in data set [4]; greater than 9.52 in data set [6] (Homo sapiens, all four cell lines, read-out: IC50 in all malignancies). The “Concentration inducing maximal cell killing” value in data set [6] (all tested cell lines) was no more than 0.5 nM. For the same compound, in data set [5], the Cmax is given as 12,031 ng/mL. Also, in data set [5], the Tmax is reported as 0.17 h. In data set [5], the CL/F worked out at 108 mL/h. Further, in data set [5] (mice, I.P.), the “Clearance, fold higher than APO866 or JJ08” value is “more than 4 fold”. Besides, in data set [5] (mouse, ip, AUC calculated from PK measurements up to 8 h, read-out: AUC0-24 (*)), the AUC(0-t) is 3720 ng·h/mL. Besides, the Tumor growth entry in data set [7] is reported as “did not stop tumor progression, but significantly delayed it”.
Turning to `O=C(/C=C/c1cccnc1)NCCCCC1CCN(C(=O)c2ccco2)CC1` [JJ08, (E)-N-(4-(1-(furan-2-carbonyl)piperidin-4-yl)butyl)-3-(pyridin-3-yl)acrylamide], on purified NAMPT, the “Inhibition of NAMPT activity” value is “full inhibition”. Moreover, the pIC50 in data set [1] is 9.29; in data set [2], 9.07; in data set [3], 9.24; in data set [4] it was 9.52. The CL/F in data set [5] came out at 53 mL/h. Also, in data set [5] (mice, I.P.), the “AUC0-24, fold lower than that of APO866” value is “approximately 2 fold”. The “CL/F, fold higher compared to APO866” value in data set [5] (mice, I.P.) was 2 fold. For the same compound, in data set [5] (mouse, ip), the half-life is 6.58 h. Also, the AUC(0-t) in data set [5] (mouse, ip, read-out: AUC0-24) is 7560 ng·h/mL. In data set [5] (mouse, ip, read-out: Cmax), the Cmax was 24300 ng/mL. Also, in data set [5] (mouse, ip, read-out: Tmax), the Tmax came to 0.17 h. Moreover, in data set [5] (mouse, ip), the Vd/F came to 0.502 L. For the same compound, in data set [7], the Tumor growth result is listed as “completely eradicated tumor growth”. The “Signs of toxicity (loss of body weight, lethargy, rough coat, premature death)” value in data set [7] (xenografted mice, 10 mg/kg I.P.) was “well tolerated”.
